Data as given in ChEMBL document CHEMBL1131944, “Phospholipase A2-like catalytic antibody” (Bioorg Med Chem Lett, 1999).

Legend:
[1] = The catalytic rate constant in the hydrolysis by 13C-1F6 was determined by Michaelis-Menten Kinetics.; format: ADME
13C-1F6 = assay: Michaelis-Menten Kinetic rate constant in the hydrolysis by 13C-1F6 was determined.; format: ADME
[2] = Compound was tested for the inhibition of antibody-catalyzed hydrolysis.

Work on `CCCCCCCCCC(=O)OCC(COP(=O)([O-])OCC[N+](C)(C)C)OC(=O)CCCCCCC` (racemic) [ESTER OF PHOSPHOLIPID] yielded a k cat [1] of 0.00017 s⁻¹ and a Km (13C-1F6) of 71 µM.
For `CCCCCCCCCCP(=O)(O)OC(COCCCCCCCCCC(=O)OC)COP(=O)([O-])OCC[N+](C)(C)C` (stereo not drawn) [ESTER OF PHOSPHOLIPID], the Ki [2] was 10 µM.
